Legend:
Format in all cases: biochemical
KDM6A (UTX) = target: T1, KDM6A (UTX) (Homo sapiens, UniProt O15550); assay: Histone lysine demethylase AlphaLISA assay, KDM6A; conditions: in vitro enzyme, read-out: KDM6A IC50 (HDME Inhibition)
T1 construct: 919-1401; host or cells: E. coli

KDM4C (JMJD2C) = target: T2, KDM4C (JMJD2C) (Homo sapiens, UniProt Q9H3R0); assay: Histone lysine demethylase AlphaLISA assay, KDM4C; conditions: in vitro enzyme, read-out: KDM4C IC50 (HDME Inhibition)
T2 construct: 1-349; host or cells: E. coli
T2 sequence (Q9H3R0 1-349): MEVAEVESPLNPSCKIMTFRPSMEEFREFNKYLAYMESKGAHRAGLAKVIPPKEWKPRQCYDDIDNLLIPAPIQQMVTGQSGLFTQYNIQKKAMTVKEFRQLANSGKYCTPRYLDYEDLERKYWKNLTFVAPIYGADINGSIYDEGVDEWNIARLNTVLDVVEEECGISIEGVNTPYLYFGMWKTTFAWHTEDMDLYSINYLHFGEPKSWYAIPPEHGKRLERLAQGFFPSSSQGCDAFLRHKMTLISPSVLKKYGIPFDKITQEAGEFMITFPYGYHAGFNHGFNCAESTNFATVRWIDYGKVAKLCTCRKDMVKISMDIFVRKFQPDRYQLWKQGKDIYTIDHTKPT
Experimental: Histone lysine demethylase AlphaLISA assays are performed to determine IC50 values. […] Assays are performed analogously to the protocol described by PerkinElmer (Roy et al. PerkinElmer Technical Note: AlphaLISA #12, April 2011).
Assays are performed analogously to the protocol described by PerkinElmer (Roy et al. PerkinElmer Technical Note: AlphaLISA #12, April 2011).
Enzymes (final assay concentration 0.1-2.5 nM) are dissolved in enzyme buffer and incubated for 10 min before 5 μL is added to 5 μL 3% DMSO solutions of compounds in enzyme buffer, incubated for another 10 minutes, before 5 μL substrate solution is added and the reaction mixture is incubated at room temperature. 10 μL acceptor beads, suspended Epigenetic Buffer (Perkin Elmer AL008) from stock, are added and the suspension is incubated in the dark at room temperature, before 10 μL suspension of streptavidin donor beads (Perkin Elmer 6760002) in Epigenetic Buffer is added. After incubation at room temperature in the dark the plates are read.
Substrate solution: Substrate (final assay concentration 50-200 nM), 50 mM Hepes (pH 7.4-8.0), 0.003% Tween-20, 0.1% BS, 25 μM L-Asc, 10 μM α-KG. Enzyme Buffer: 50 mM Hepes (pH 7.4-8.0), 0.003% Tween-20, 0.1% BSA; 5 μM (NH4)2Fe(SO4)2

KDM5B (PLU-1) = target: T3, KDM5B (PLU-1) (Homo sapiens, UniProt Q9UGL1); assay: Histone lysine demethylase AlphaLISA assay, KDM5B; conditions: in vitro enzyme, read-out: KDM5B IC50 (HDME Inhibition)
T3 construct: 1-809; host or cells: E. coli
T3 sequence (Q9UGL1 1-809): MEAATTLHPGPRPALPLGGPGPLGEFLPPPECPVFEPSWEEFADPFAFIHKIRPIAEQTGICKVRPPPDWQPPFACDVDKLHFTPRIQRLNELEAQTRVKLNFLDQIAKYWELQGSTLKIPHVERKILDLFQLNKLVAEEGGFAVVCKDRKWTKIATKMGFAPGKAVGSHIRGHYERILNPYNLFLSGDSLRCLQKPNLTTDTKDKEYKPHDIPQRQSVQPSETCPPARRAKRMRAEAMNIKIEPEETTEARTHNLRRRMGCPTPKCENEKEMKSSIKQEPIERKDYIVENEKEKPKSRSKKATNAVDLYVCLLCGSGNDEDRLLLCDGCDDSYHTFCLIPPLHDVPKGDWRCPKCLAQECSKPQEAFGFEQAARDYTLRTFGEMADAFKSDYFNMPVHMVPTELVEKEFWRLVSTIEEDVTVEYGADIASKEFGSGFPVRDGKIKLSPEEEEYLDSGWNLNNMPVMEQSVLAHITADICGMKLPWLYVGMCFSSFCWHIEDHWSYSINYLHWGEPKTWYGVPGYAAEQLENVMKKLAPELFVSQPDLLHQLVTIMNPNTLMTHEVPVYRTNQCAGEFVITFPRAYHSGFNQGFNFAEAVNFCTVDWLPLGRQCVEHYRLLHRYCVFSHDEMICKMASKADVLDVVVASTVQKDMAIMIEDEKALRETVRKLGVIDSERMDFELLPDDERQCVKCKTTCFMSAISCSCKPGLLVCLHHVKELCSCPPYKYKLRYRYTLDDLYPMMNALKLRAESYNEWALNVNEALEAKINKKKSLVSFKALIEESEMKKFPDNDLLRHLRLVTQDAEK

PHF8 (KDM7) = PHF8 (KDM7) (Homo sapiens, UniProt Q9UPP1); assay: Histone lysine demethylase AlphaLISA assay, PHF8; conditions: in vitro enzyme, read-out: PHF8 IC50 (HDME Inhibition)
Sequence of PHF8 (KDM7) (Q9UPP1 whole entry): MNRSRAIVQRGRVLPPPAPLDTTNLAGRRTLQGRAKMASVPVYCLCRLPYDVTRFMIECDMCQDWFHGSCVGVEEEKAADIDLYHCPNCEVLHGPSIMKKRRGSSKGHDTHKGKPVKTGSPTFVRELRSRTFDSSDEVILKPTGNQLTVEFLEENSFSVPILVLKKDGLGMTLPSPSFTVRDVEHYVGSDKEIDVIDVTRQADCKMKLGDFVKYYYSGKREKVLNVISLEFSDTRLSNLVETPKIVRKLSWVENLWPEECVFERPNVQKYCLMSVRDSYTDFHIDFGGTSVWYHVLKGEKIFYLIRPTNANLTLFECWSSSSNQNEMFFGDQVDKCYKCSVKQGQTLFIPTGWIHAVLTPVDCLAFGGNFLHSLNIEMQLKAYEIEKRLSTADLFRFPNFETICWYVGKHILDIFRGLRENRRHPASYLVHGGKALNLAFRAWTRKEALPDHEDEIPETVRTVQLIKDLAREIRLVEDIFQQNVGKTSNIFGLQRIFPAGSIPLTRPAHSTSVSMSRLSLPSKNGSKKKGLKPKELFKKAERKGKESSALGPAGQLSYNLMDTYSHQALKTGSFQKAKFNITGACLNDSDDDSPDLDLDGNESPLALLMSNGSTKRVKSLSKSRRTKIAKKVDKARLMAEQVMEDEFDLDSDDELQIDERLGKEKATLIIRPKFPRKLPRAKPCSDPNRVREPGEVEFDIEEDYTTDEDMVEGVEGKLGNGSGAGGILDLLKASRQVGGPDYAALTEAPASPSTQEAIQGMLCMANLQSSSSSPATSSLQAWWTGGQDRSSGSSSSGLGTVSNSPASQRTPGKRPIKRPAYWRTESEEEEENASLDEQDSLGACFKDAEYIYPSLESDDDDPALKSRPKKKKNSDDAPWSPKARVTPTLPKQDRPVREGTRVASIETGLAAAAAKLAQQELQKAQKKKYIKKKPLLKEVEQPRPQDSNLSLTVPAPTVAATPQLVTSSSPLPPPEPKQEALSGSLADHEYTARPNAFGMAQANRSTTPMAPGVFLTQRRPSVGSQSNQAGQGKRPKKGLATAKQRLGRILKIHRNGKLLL

T1 sequence (O15550 919-1401): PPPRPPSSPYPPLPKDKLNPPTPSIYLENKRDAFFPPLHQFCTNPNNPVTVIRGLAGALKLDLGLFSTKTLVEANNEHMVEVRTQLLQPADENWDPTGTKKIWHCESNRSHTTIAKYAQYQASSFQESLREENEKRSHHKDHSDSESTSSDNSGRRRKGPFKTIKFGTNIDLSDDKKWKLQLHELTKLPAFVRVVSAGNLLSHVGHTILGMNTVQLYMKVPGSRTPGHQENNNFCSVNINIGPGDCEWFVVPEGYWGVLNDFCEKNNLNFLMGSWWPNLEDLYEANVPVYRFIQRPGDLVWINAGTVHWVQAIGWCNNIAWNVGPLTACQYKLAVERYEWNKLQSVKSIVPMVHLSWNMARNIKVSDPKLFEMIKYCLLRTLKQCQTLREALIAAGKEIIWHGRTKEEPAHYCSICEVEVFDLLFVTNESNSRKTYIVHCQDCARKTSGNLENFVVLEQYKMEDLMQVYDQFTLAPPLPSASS

IC50 (KDM6A (UTX)) [µM] | IC50 (KDM4C (JMJD2C)) [µM] | IC50 (KDM5B (PLU-1)) [µM] | IC50 (PHF8 (KDM7)) [µM] | SMILES
> 2.5 | > 2.5 | – | – | CC(N[C@@H](C)C(=O)NCc1cccc(C(=O)O)c1)c1cc(C(=O)O)ccn1 (stereo partly drawn) [Compound 1, 2-(1-{[(1S)-1-{[(3-carboxyphenyl)methyl]carbamoyl}ethyl]amino}ethyl)pyridine-4-carboxylic acid]
– | > 2.5 | > 2.5 | > 2.5 | CC(N[C@@H](C)C(=O)NCc1ccc([N+](=O)[O-])cc1)c1cc(C(=O)O)ccn1 (stereo partly drawn) [Compound 5, 2-(1-{[(1S)-1-{[(4-nitrophenyl)methyl]carbamoyl}ethyl]amino}ethyl)pyridine-4-carboxylic acid]
> 2.5 | > 2.5 | < 0.25 | – | O=C(O)c1ccnc(CNCc2nccn2C/C=C/c2ccccc2)c1 [Compound 13, 2-{[({1-[(2E)-3-phenylprop-2-en-1-yl]-1H-imidazol-2-yl}methyl)amino]methyl}pyridine-4-carboxylic acid]
> 2.5 | > 2.5 | > 2.5 | – | CC(N[C@@H](C)C(=O)NCc1ccncc1)c1cc(C(=O)O)ccn1 (stereo partly drawn) [Compound 15, 2-(1-{[(1S)-1-[(pyridin-4-ylmethyl)carbamoyl]ethyl]amino}ethyl)pyri-dine-4-carboxylic acid]
> 2.5 | > 2.5 | 0.25 to 2.5 | – | C=CCN(CC=C)C(=O)[C@H](CCCCN(C)C(C)=O)NCc1cc(C(=O)O)ccn1 [Compound 21, 2-({[(1S)-1-[bis(prop-2-en-1-yl)carbamoyl]-5-(N-methylacetamido)pentyl]amino}methyl)pyri-dine-4-carboxylic acid]
> 2.5 | < 0.25 | < 0.25 | – | O=C(O)c1cnnc(CNCC(=O)N2CCCCC2)c1 [Compound 26, 6-({[2-oxo-2-(piperidin-1-yl)ethyl]amino}methyl) pyridazine-4-carboxylic acid]
> 2.5 | > 2.5 | 0.25 to 2.5 | – | CC(C)C[C@H](CO)NC(C)c1cc(C(=O)O)ccn1 (stereo partly drawn) [Compound 33, 2-(1-{[(2R)-1-hydroxy-4-methylpentan-2-yl]amino}ethyl)pyridine-4-carboxylic acid]
> 2.5 | > 2.5 | > 2.5 | – | CSCC(NCC(=O)N1CCCCC1)c1cc(C(=O)O)ccn1 (centres unmarked) [Compound 42, 2-[2-(methylsulfanyl)-1-{[2-oxo-2-(piperidin-1-yl)ethyl]amino}ethyl] pyridine-4-carboxylic acid]
– | > 2.5 | 0.25 to 2.5 | > 2.5 | O=C(O)c1ccnc(CN2CCC(c3ccc(F)cc3)n3ccnc3C2)c1 (centres unmarked) [Compound 50, 2-{[5-(4-fluorophenyl)-5H,6H,7H,8H,9H-imidazo[1,2-a][1,4]diazepin-8-yl]methyl}pyridine-4-carboxylic acid]
> 2.5 | < 0.25 | – | 0.25 to 2.5 | O=C(O)c1ccnc(CN2CCCCn3ccnc3C2)c1 [Compound 51, 2-{5H,6H,7H,8H,9H,10H-imidazo[1,2-a][1,4]diazocin-9-ylmethyl}pyridine-4-carboxylic acid]
> 2.5 | 0.25 to 2.5 | – | > 2.5 | O=C(O)c1ccnc(CN2CCCn3ccnc3C2)c1 [Compound 53, 2-{5H,6H,7H,8H,9H-imidazo[1,2-a][1,4]diazepin-8-ylmethyl}pyridine-4-carboxylic acid]
> 2.5 | > 2.5 | > 2.5 | – | Cc1cn2c(n1)CCN(Cc1cc(C(=O)O)ccn1)CCC2 [Compound 67, 2-({2-methyl-5H,6H,7H,8H,9H,10H-imidazo[1,2-a][1,5]diazocin-8-yl}methyl)pyridine-4-carboxylic acid]
– | 0.25 to 2.5 | 0.25 to 2.5 | < 0.25 | CCNC(=O)C1CN(Cc2cc(C(=O)O)ccn2)C1 [Compound 68, 2-{[3-(ethylcarbamoyl)azetidin-1-yl]methyl}pyridine-4-carboxylic acid]
– | > 2.5 | – | > 2.5 | O=C(O)c1ccnc(CN2CCCC[C@H]2CC(=O)N2CCCCC2)c1 [Compound 70, 2-{[(2S)-2-[2-oxo-2-(piperidin-1-yl)ethyl]piperidin-1-yl]methyl}pyridine-4-carboxylic acid]
> 2.5 | > 2.5 | > 2.5 | – | CCNC(=O)C[C@@H]1CCCCN1Cc1cc(C(=O)O)ccn1 [Compound 71, 2-{[(2S)-2-[(ethylcarbamoyl)methyl]piperidin-1-yl]methyl}pyridine-4-carboxylic acid]
> 2.5 | > 2.5 | > 2.5 | – | O=C(O)c1ccnc(CN2CCCC[C@@H]2CC(=O)N2CCCCC2)c1 [Compound 72, 2-{[(2R)-2-[2-oxo-2-(piperidin-1-yl)ethyl]piperidin-1-yl]methyl}pyridine-4-carboxylic acid]
0.25 to 2.5 | < 0.25 | < 0.25 | – | COc1ccc([C@@H](C)N2CC[C@H](CNCc3cc(C(=O)O)ccn3)C2=O)cc1 [Compound 79, 2-[({[(3R)-1-[(1R)-1-(4-methoxyphenyl)ethyl]-2-oxopyrrolidin-3-yl]methyl}amino)methyl]pyridine-4-carboxylic acid]
0.25 to 2.5 | < 0.25 | < 0.25 | – | C[C@H](c1ccccc1)N1CC[C@H](CNCc2cc(C(=O)O)ccn2)C1=O [Compound 82, 2-[({[(3R)-2-oxo-1-[(1R)-1-phenylethyl]pyrrolidin-3-yl]methyl}amino)methyl]pyridine-4-carboxylic acid]
– | 0.25 to 2.5 | < 0.25 | < 0.25 | O=C(O)c1ccnc(CNC2CCCn3ccnc32)c1 (centres unmarked) [Compound 90, 2-[({5H,6H,7H,8H-imidazo[1,2-a]pyridin-8-yl}amino)methyl]pyri-dine-4-carboxylic acid]
> 2.5 | 0.25 to 2.5 | < 0.25 | – | O=C(O)c1ccnc(CNC2CCn3ccnc32)c1 (centres unmarked) [Compound 93, 2-[({5H,6H,7H-pyrrolo[1,2-a]imidazol-7-yl}amino)methyl]pyri-dine-4-carboxylic acid]
> 2.5 | > 2.5 | > 2.5 | – | O=C(O)c1ccnc(CNC2CCCc3cccnc32)c1 (centres unmarked) [Compound 94, 2-{[(5,6,7,8-tetrahydroquinolin-8-yl)amino]methyl} pyridine-4-carboxylic acid]
– | 0.25 to 2.5 | < 0.25 | < 0.25 | C=Cc1ccnc2c1CCC2NCc1cc(C(=O)O)ccn1 (centres unmarked) [Compound 100, 2-[({4-ethenyl-5H,6H,7H-cyclopenta[b]pyridin-7-yl}amino)methyl]pyri-dine-4-carboxylic acid]
> 2.5 | 0.25 to 2.5 | < 0.25 | 0.25 to 2.5 | CCN1CCC[C@@H](CNCc2cc(C(=O)O)ccn2)C1=O [Compound 104, 2-[({[(3S)-1-ethyl-2-oxopiperidin-3-yl]methyl}amino)methyl]pyridine-4-carboxylic acid]
